Columns and labels:
Test in all cases: relative viability vs DMSO control (72 h) (fraction); higher = more viable cells
A204 = system: A204
Method in brief: (§1)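 Relative viability was measured with ATPLite and expressed as percent growth, averaged across up to triplicate wells. Sarcoma cell lines had been seeded in 384-well plates to reach 80–90% confluence, dosed after 24 h, and incubated 72 h at 37 °C, 5% CO2. All data were rescaled on a scale where 1 is full and 0 is none.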

G401 = system: G401
Method in brief: as §1

HS729 = system: HS729
Method in brief: as §1

HT1080 = system: HT1080
Method in brief: as §1

KHOS-NP = system: KHOS-NP
Method in brief: as §1

RD-ES = system: RD-ES
Method in brief: as §1

SK-ES-1 = system: SK-ES-1
Method in brief: as §1

SK-LMS-1 = system: SK-LMS-1
Method in brief: as §1

SW684 = system: SW684
Method in brief: as §1

SW872 = system: SW872
Method in brief: as §1

SW982 = system: SW982
Method in brief: as §1

VA-ES-BJ = system: VA-ES-BJ
Method in brief: as §1

Cc1cccc(-c2nn3c(c2-c2ccnc4ccc(C(N)=O)cc24)CCC3)n1 [Galunisertib]
Settings	relative viability
A204, 0.00017 µM	1.01
A204, 0.00051 µM	1.04
A204, 0.00152 µM	0.99
A204, 0.00457 µM	1.03
A204, 0.01372 µM	0.984
A204, 0.04115 µM	1
A204, 0.1235 µM	1.01
A204, 0.3704 µM	1.02
A204, 1.111 µM	0.996
A204, 3.333 µM	0.996
A204, 10 µM	0.936
G401, 0.00017 µM	0.977
G401, 0.00051 µM	0.93
G401, 0.00152 µM	1.01
G401, 0.00457 µM	0.959
G401, 0.01372 µM	0.974
G401, 0.04115 µM	0.964
G401, 0.1235 µM	0.984
G401, 0.3704 µM	0.971
G401, 1.111 µM	0.965
G401, 3.333 µM	0.9721
G401, 10 µM	0.979
HS729, 0.00017 µM	0.993
HS729, 0.00051 µM	0.933
HS729, 0.00152 µM	0.948
HS729, 0.00457 µM	0.897
HS729, 0.01372 µM	0.901
HS729, 0.04115 µM	0.892
HS729, 0.1235 µM	0.898
HS729, 0.3704 µM	0.836
HS729, 1.111 µM	0.794
HS729, 3.333 µM	0.756
HS729, 10 µM	0.749
HT1080, 0.00017 µM	1.06
HT1080, 0.00051 µM	1.04
HT1080, 0.00152 µM	0.959
HT1080, 0.00457 µM	1.04
HT1080, 0.01372 µM	1.04
HT1080, 0.04115 µM	1.01
HT1080, 0.1235 µM	1.01
HT1080, 0.3704 µM	1.04
HT1080, 1.111 µM	1.04
HT1080, 3.333 µM	1.03
HT1080, 10 µM	1.02
KHOS-NP, 0.00017 µM	1.088
KHOS-NP, 0.00051 µM	1.09
KHOS-NP, 0.00152 µM	1.066
KHOS-NP, 0.00457 µM	1.06
KHOS-NP, 0.01372 µM	1.06
KHOS-NP, 0.04115 µM	1.07
KHOS-NP, 0.1235 µM	1.03
KHOS-NP, 0.3704 µM	1.04
KHOS-NP, 1.111 µM	0.999
KHOS-NP, 3.333 µM	0.978
KHOS-NP, 10 µM	0.976
RD-ES, 0.00017 µM	0.932
RD-ES, 0.00051 µM	0.975
RD-ES, 0.00152 µM	0.979
RD-ES, 0.00457 µM	0.965
RD-ES, 0.01372 µM	0.979
RD-ES, 0.04115 µM	0.9533
RD-ES, 0.1235 µM	0.92
RD-ES, 0.3704 µM	0.915
RD-ES, 1.111 µM	0.913
RD-ES, 3.333 µM	0.886
RD-ES, 10 µM	0.894
SK-ES-1, 0.00017 µM	1.02
SK-ES-1, 0.00051 µM	1.03
SK-ES-1, 0.00152 µM	0.998
SK-ES-1, 0.00457 µM	0.978
SK-ES-1, 0.01372 µM	1.06
SK-ES-1, 0.04115 µM	1.02
SK-ES-1, 0.1235 µM	0.946
SK-ES-1, 0.3704 µM	0.996
SK-ES-1, 1.111 µM	0.974
SK-ES-1, 3.333 µM	0.96
SK-ES-1, 10 µM	0.959
SK-LMS-1, 0.00017 µM	1.04
SK-LMS-1, 0.00051 µM	1
SK-LMS-1, 0.00152 µM	1.01
SK-LMS-1, 0.00457 µM	0.982
SK-LMS-1, 0.01372 µM	1.01
SK-LMS-1, 0.04115 µM	0.982
SK-LMS-1, 0.1235 µM	1.01
SK-LMS-1, 0.3704 µM	1
SK-LMS-1, 1.111 µM	1
SK-LMS-1, 3.333 µM	0.953
SK-LMS-1, 10 µM	0.965
SW684, 0.00017 µM	1.08
SW684, 0.00051 µM	1.09
SW684, 0.00152 µM	1.08
SW684, 0.00457 µM	1.13
SW684, 0.01372 µM	1.09
SW684, 0.04115 µM	1.11
SW684, 0.1235 µM	1.09
SW684, 0.3704 µM	1.08
SW684, 1.111 µM	1.05
SW684, 3.333 µM	1.08
SW684, 10 µM	1.09
SW872, 0.00017 µM	1.05
SW872, 0.00051 µM	1.05
SW872, 0.00152 µM	1
SW872, 0.00457 µM	1.02
SW872, 0.01372 µM	0.989
SW872, 0.04115 µM	0.991
SW872, 0.1235 µM	0.956
SW872, 0.3704 µM	0.96
SW872, 1.111 µM	1
SW872, 3.333 µM	1.01
SW872, 10 µM	1
SW982, 0.00017 µM	1
SW982, 0.00051 µM	1.02
SW982, 0.00152 µM	0.965
SW982, 0.00457 µM	1
SW982, 0.01372 µM	0.999
SW982, 0.04115 µM	0.98
SW982, 0.1235 µM	0.974
SW982, 0.3704 µM	0.977
SW982, 1.111 µM	0.988
SW982, 3.333 µM	0.98
SW982, 10 µM	1.05
VA-ES-BJ, 0.00017 µM	1.04
VA-ES-BJ, 0.00051 µM	1
VA-ES-BJ, 0.00152 µM	1.03
VA-ES-BJ, 0.00457 µM	0.9974
VA-ES-BJ, 0.01372 µM	0.983
VA-ES-BJ, 0.04115 µM	0.986
VA-ES-BJ, 0.1235 µM	1.01
VA-ES-BJ, 0.3704 µM	1.01
VA-ES-BJ, 1.111 µM	1.07
VA-ES-BJ, 3.333 µM	1.08
VA-ES-BJ, 10 µM	1.11
